The target in this test is T1, MDM2 (MDM2-MDM4 RING domain heterodimer) (Homo sapiens, UniProt O15151+Q00987).
T1 construct: RING domain heterodimers of MDM2-MDM4, co-expressed in E. coli; with MDM4 (RING domain)
The test can be described thus: microscale thermophoresis; thermofluor (Tm […] to […] °C); in vitro ubiquitination activation. It is filed as binding. A general note: Microscale thermophoresis detects binding through changes in fluorescence in a small temperature gradient.

pKd: −log10 of the molar value.

T1 sequence (Q00987 428-491 limits assumed): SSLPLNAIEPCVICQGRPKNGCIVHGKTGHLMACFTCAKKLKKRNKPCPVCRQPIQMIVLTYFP
T1 sequence (O15151 428-490 limits assumed): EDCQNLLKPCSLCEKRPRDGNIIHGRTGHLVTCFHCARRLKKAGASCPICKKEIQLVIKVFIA

As a reminder, the pKd is the negative decadic logarithm of the Kd, by convention in mol/L. Higher therefore signals a small Kd. The molecule `O=C1Nc2ccc(Br)cc2C12NN=C(c1ccccc1)S2` (stereo not shown) [MMRi36] gave a pKd of about 6.51.

The values above are taken from publication PMC11700832, “Small-molecule MMRi36 induces apoptosis in p53-mutant lymphomas by targeting MDM2/MDM4/XIAP for degradation” (Frontiers in Oncology, 2024).
